Measurements from US20260217701A1, “SELECTIVE BET INHIBITORS AND USES THEREOF” (Tay Therapeutics Limited, priority 2022, published 2026).
Several values for one entry are separate records, joined by “and”; a condition that tells them apart may be missing. Equal entries are not always repeated.

System: collagen-induced arthritis
Test: Collagen-induced arthritis (CIA) model: clinical scores and paw volume; for Animal paw volume percent change (%): reference of the scale not given here; for Average animal paw volume percent change (%): reference of the scale not given here
Assay type: in vivo, Lewis rats
Details: for Overall Clinical Score: individual animals 1-8; for Animal paw volume percent change (%): individual animals
[1] = Day 12, CIA + Compound A 10 mg/kg
[2] = Day 13, L paw, group 5 CIA + Compound A 1 mg/kg
[3] = Day 13, L paw, group 6 CIA + Compound A 3 mg/kg
[4] = Day 13, L paw, group 7 CIA + Compound A 10 mg/kg
[5] = Day 13, R paw, group 5 CIA + Compound A 1 mg/kg
[6] = Day 13, R paw, group 6 CIA + Compound A 3 mg/kg
[7] = Day 13, R paw, group 7 CIA + Compound A 10 mg/kg
[8] = Day 13, CIA + Compound A 1 mg/kg
[9] = Day 13, CIA + Compound A 3 mg/kg
[10] = Day 13, CIA + Compound A 10 mg/kg
[11] = Day 14, L paw, group 5 CIA + Compound A 1 mg/kg
[12] = Day 14, L paw, group 6 CIA + Compound A 3 mg/kg
[13] = Day 14, L paw, group 7 CIA + Compound A 10 mg/kg
[14] = Day 14, R paw, group 5 CIA + Compound A 1 mg/kg
[15] = Day 14, R paw, group 6 CIA + Compound A 3 mg/kg
[16] = Day 14, R paw, group 7 CIA + Compound A 10 mg/kg
[17] = Day 14, CIA + Compound A 1 mg/kg
[18] = Day 14, CIA + Compound A 3 mg/kg
[19] = Day 14, CIA + Compound A 10 mg/kg
[20] = Day 15, L paw, group 5 CIA + Compound A 1 mg/kg
[21] = Day 15, L paw, group 6 CIA + Compound A 3 mg/kg
[22] = Day 15, L paw, group 7 CIA + Compound A 10 mg/kg
[23] = Day 15, R paw, group 5 CIA + Compound A 1 mg/kg
[24] = Day 15, R paw, group 6 CIA + Compound A 3 mg/kg
[25] = Day 15, R paw, group 7 CIA + Compound A 10 mg/kg
[26] = Day 15, CIA + Compound A 1 mg/kg
[27] = Day 15, CIA + Compound A 3 mg/kg

SMILES: Cn1cc(-c2ccccc2)c(-c2cn(C)c(=O)c3[nH]c(-c4cnn(C(F)(F)F)c4)cc23)cc1=O [Compound A, 6-methyl-4-(1-methyl-2-oxo-5-phenyl-1,2-dihydropyridin-4-yl)-2-(1-(trifluoromethyl)-1H-pyrazol-4-yl)-1,6-dihydro-7H-pyrrolo[2,3-c]pyridin-7-one]
- Average detailed clinical score, left forelimb [1]: 0.00
- Average detailed clinical score, left hind limb [1]: 0.00
- Average detailed clinical score, right forelimb [1]: 0.00
- Average detailed clinical score, right hind limb [1]: 0.13
- Average detailed clinical score, score [1]: 0.13
- Average overall clinical score [1]: 0
- Average animal paw volume [2]: 1.42 mL
- Average animal paw volume percent change (%) [2]: 7.45%
- Average animal paw volume [3]: 1.40 mL
- Average animal paw volume percent change (%) [3]: 6.55%
- Average animal paw volume [4]: 1.41 mL
- Average animal paw volume percent change (%) [4]: 7.21%
- Average animal paw volume [5]: 1.43 mL
- Average animal paw volume percent change (%) [5]: 7.62%
- Average animal paw volume [6]: 1.40 mL
- Average animal paw volume percent change (%) [6]: 6.26%
- Average animal paw volume [7]: 1.41 mL
- Average animal paw volume percent change (%) [7]: 7.41%
- Average detailed clinical score, left forelimb [8]: 0
- Average detailed clinical score, left hind limb [8]: 0
- Average detailed clinical score, right forelimb [8]: 0
- Average detailed clinical score, right hind limb [8]: 0
- Average detailed clinical score, score [8]: 0
- Average overall clinical score [8]: 0
- Overall Clinical Score (Day 13, CIA + Compound A 1 mg/kg, 1 mg/kg): 0 (6×) and 2 and 1
- Average detailed clinical score, left forelimb [9]: 0
- Average detailed clinical score, left hind limb [9]: 0
- Average detailed clinical score, right forelimb [9]: 0
- Average detailed clinical score, right hind limb [9]: 0
- Average detailed clinical score, score [9]: 0
- Average overall clinical score [9]: 0
- Overall Clinical Score (Day 13, CIA + Compound A 3 mg/kg, 3 mg/kg): 0
- Average detailed clinical score, left forelimb [10]: 0
- Average detailed clinical score, left hind limb [10]: 0.125
- Average detailed clinical score, right forelimb [10]: 0.125
- Average detailed clinical score, right hind limb [10]: 0.25
- Average detailed clinical score, score [10]: 0.5
- Average overall clinical score [10]: 1
- Average animal paw volume [11]: 1.53 mL
- Average animal paw volume percent change (%) [11]: 15.36%
- Average animal paw volume [12]: 1.44 mL
- Average animal paw volume percent change (%) [12]: 9.64%
- Average animal paw volume [13]: 1.44 mL
- Average animal paw volume percent change (%) [13]: 9.68%
- Average animal paw volume [14]: 1.49 mL
- Average animal paw volume percent change (%) [14]: 11.73%
- Average animal paw volume [15]: 1.45 mL
- Average animal paw volume percent change (%) [15]: 10.16%
- Average animal paw volume [16]: 1.44 mL
- Average animal paw volume percent change (%) [16]: 9.90%
- Average detailed clinical score, left forelimb [17]: 0
- Average detailed clinical score, left hind limb [17]: 1
- Average detailed clinical score, right forelimb [17]: 0
- Average detailed clinical score, right hind limb [17]: 0
- Average detailed clinical score, score [17]: 1
- Average overall clinical score [17]: 1
- Overall Clinical Score (Day 14, CIA + Compound A 1 mg/kg, 1 mg/kg): 0 (3×) and 2 (2×) and 1 (3×)
- Average detailed clinical score, left forelimb [18]: 0
- Average detailed clinical score, left hind limb [18]: 0
- Average detailed clinical score, right forelimb [18]: 0
- Average detailed clinical score, right hind limb [18]: 0
- Average detailed clinical score, score [18]: 1
- Average overall clinical score [18]: 1
- Overall Clinical Score (Day 14, CIA + Compound A 3 mg/kg, 3 mg/kg): 0
- Average detailed clinical score, left forelimb [19]: 0
- Average detailed clinical score, left hind limb [19]: 0.25
- Average detailed clinical score, right forelimb [19]: 0
- Average detailed clinical score, right hind limb [19]: 0.375
- Average detailed clinical score, score [19]: 0.625
- Average overall clinical score [19]: 1
- Average animal paw volume [20]: 1.64 mL
- Average animal paw volume percent change (%) [20]: 24.11%
- Average animal paw volume [21]: 1.54 mL
- Average animal paw volume percent change (%) [21]: 16.70%
- Average animal paw volume [22]: 1.54 mL
- Average animal paw volume percent change (%) [22]: 16.95%
- Animal paw volume percent change (%) (Day 15, L paw, group 5 CIA + Compound A 1 mg/kg, 1 mg/kg): 10.73% and 42.25% and 30.26% and 23.40% and 10.86% and 24.91% and 44.53%
- Animal paw volume percent change (%) (Day 15, L paw, group 6 CIA + Compound A 3 mg/kg, 3 mg/kg): 12.93% and 23.35% and 12.17% and 8.79% and 18.01% and 25.47%
- Average animal paw volume [23]: 1.58 mL
- Average animal paw volume percent change (%) [23]: 19.02%
- Average animal paw volume [24]: 1.51 mL
- Average animal paw volume percent change (%) [24]: 14.88%
- Average animal paw volume [25]: 1.50 mL
- Average animal paw volume percent change (%) [25]: 14.23%
- Animal paw volume percent change (%) (Day 15, R paw, group 5 CIA + Compound A 1 mg/kg, 1 mg/kg): 8.43% and 39.77% and 13.09% and 24.15% and 10.33% and 30.42% and 20.00%
- Animal paw volume percent change (%) (Day 15, R paw, group 6 CIA + Compound A 3 mg/kg, 3 mg/kg): 4.53% and 9.73% and 9.81% and 5.20% and 34.75% and 17.23%
- Average detailed clinical score, left forelimb [26]: 0
- Average detailed clinical score, left hind limb [26]: 1
- Average detailed clinical score, right forelimb [26]: 0
- Average detailed clinical score, right hind limb [26]: 1
- Average detailed clinical score, score [26]: 2
- Average overall clinical score [26]: 2
- Overall Clinical Score (Day 15, CIA + Compound A 1 mg/kg, 1 mg/kg): 0 (3×) and 4 and 3 (3×) and 2
- Average detailed clinical score, left forelimb [27]: 0
- Average detailed clinical score, left hind limb [27]: 1
- Average detailed clinical score, right forelimb [27]: 0
- Average detailed clinical score, right hind limb [27]: 1
